Measured values taken from patent publication US20260232767A1, “INTERLEUKIN-23 RECEPTOR ANTAGONIST PEPTIDES FOR USE IN THE TREATMENT OF PSORIASIS” (Janssen Pharmaceutica NV, priority 2023, published 2026).

Test system: subjects with moderate-to-severe plaque psoriasis
Assay: Safety, adverse events, Example 2 through Week 56
Assay type: in vivo, human
Conditions: through Week 56; for Subjects with 1 or more Serious adverse events: Tonsillar hypertrophy / Subjects with 1 or more Serious adverse events: Uterine leiomyoma / Subjects with 1 or more Serious adverse events: Ventricular dysfunction / Subjects with 1 or more treatment-emergent adverse events leading to discontinuation of study agent / Subjects with 1 or more Adverse events / Subjects with 1 or more Adverse events: Alanine aminotransferase increased / Subjects with 1 or more Adverse events: Arthralgia / Subjects with 1 or more Adverse events: Aspartate aminotransferase increased / Subjects with 1 or more Adverse events: Bronchitis / Subjects with 1 or more Adverse events: COVID-19 / Subjects with 1 or more Adverse events: Cough / Subjects with 1 or more Adverse events: Diarrhea / Subjects with 1 or more Adverse events: Headache / Subjects with 1 or more Adverse events: Influenza / Subjects with 1 or more Adverse events: Nasopharyngitis / Subjects with 1 or more Adverse events: Upper respiratory tract infection / Subjects with 1 or more Adverse events: Urinary tract infection / Subjects with 1 or more Serious adverse events / Subjects with 1 or more Serious adverse events: COVID-19 / Subjects with 1 or more Serious adverse events: Cerebrovascular accident / Subjects with 1 or more Serious adverse events: Coronary artery disease / Subjects with 1 or more Serious adverse events: Diverticulitis / Subjects with 1 or more Serious adverse events: Foot deformity / Subjects with 1 or more Serious adverse events: Infected cyst / Subjects with 1 or more Serious adverse events: Intervertebral disc protrusion / Subjects with 1 or more Serious adverse events: Ligament injury / Subjects with 1 or more Serious adverse events: Non-cardiac chest pain / Subjects with 1 or more Serious adverse events: Suicide attempt: number of subjects
Excerpt: The LTE safety analysis was based on randomized participants in Example who entered the present long-term extension study and received at least one dose of study intervention (including a partial dose) during the study period.

[1] = Placebo → 100 mg QD after crossover

CC(=O)NCCCC[C@@H]1NC(=O)[C@H](Cc2c[nH]c3c(C)cccc23)NC(=O)[C@H]([C@@H](C)O)NC(=O)[C@H](CC(N)=O)NC(=O)[C@@H](NC(C)=O)C(C)(C)SSC(C)(C)[C@@H](C(=O)N[C@@H](Cc2ccc(OCCN)cc2)C(=O)N[C@@H](Cc2ccc3ccccc3c2)C(=O)NC2(C(=O)N[C@@H](CCC(=O)O)C(=O)N[C@@H](CC(N)=O)C(=O)N[C@@H](Cc3cccnc3)C(=O)N(C)CC(N)=O)CCOCC2)NC1=O [IL-23 receptor antagonist peptide, Ac-[Pen]*-N-T-[W(7-Me)]-[Lys(Ac)]-[Pen]*-Phe[4-(2-aminoethoxy)]-[2-Nal]-[THP]-E-N-[3-Pal]-Sarc-NH2 (*[Pen]-[Pen]* formdisulfidebond)]
Subjects with 1 or more Serious adverse events: Tonsillar hypertrophy (50 mg QD): 0 | Subjects with 1 or more Serious adverse events: Uterine leiomyoma (50 mg QD): 0 | Subjects with 1 or more Serious adverse events: Ventricular dysfunction (50 mg QD): 0 | Subjects with 1 or more treatment-emergent adverse events leading to discontinuation of study agent (50 mg QD): 2 | Subjects with 1 or more Adverse events (100 mg BID): 32 | Subjects with 1 or more Adverse events: Alanine aminotransferase increased (100 mg BID): 4 | Subjects with 1 or more Adverse events: Arthralgia (100 mg BID): 2 | Subjects with 1 or more Adverse events: Aspartate aminotransferase increased (100 mg BID): 3 | Subjects with 1 or more Adverse events: Bronchitis (100 mg BID): 0 | Subjects with 1 or more Adverse events: COVID-19 (100 mg BID): 7 | Subjects with 1 or more Adverse events: Cough (100 mg BID): 2 | Subjects with 1 or more Adverse events: Diarrhea (100 mg BID): 1 | Subjects with 1 or more Adverse events: Headache (100 mg BID): 1 | Subjects with 1 or more Adverse events: Influenza (100 mg BID): 1 | Subjects with 1 or more Adverse events: Nasopharyngitis (100 mg BID): 5 | Subjects with 1 or more Adverse events: Upper respiratory tract infection (100 mg BID): 5 | Subjects with 1 or more Adverse events: Urinary tract infection (100 mg BID): 2 | Subjects with 1 or more Serious adverse events (100 mg BID): 1 | Subjects with 1 or more Serious adverse events: COVID-19 (100 mg BID): 0 | Subjects with 1 or more Serious adverse events: Cerebrovascular accident (100 mg BID): 0 | Subjects with 1 or more Serious adverse events: Coronary artery disease (100 mg BID): 0 | Subjects with 1 or more Serious adverse events: Diverticulitis (100 mg BID): 0 | Subjects with 1 or more Serious adverse events: Foot deformity (100 mg BID): 0 | Subjects with 1 or more Serious adverse events: Infected cyst (100 mg BID): 0 | Subjects with 1 or more Serious adverse events: Intervertebral disc protrusion (100 mg BID): 0 | Subjects with 1 or more Serious adverse events: Ligament injury (100 mg BID): 0 | Subjects with 1 or more Serious adverse events: Non-cardiac chest pain (100 mg BID): 0 | Subjects with 1 or more Serious adverse events: Suicide attempt (100 mg BID): 0 | Subjects with 1 or more Serious adverse events: Tonsillar hypertrophy (100 mg BID): 0 | Subjects with 1 or more Serious adverse events: Uterine leiomyoma (100 mg BID): 1 | Subjects with 1 or more Serious adverse events: Ventricular dysfunction (100 mg BID): 0 | Subjects with 1 or more treatment-emergent adverse events leading to discontinuation of study agent (100 mg BID): 1 | Subjects with 1 or more Adverse events (100 mg QD): 31 | Subjects with 1 or more Adverse events: Alanine aminotransferase increased (100 mg QD): 0 | Subjects with 1 or more Adverse events: Arthralgia (100 mg QD): 3 | Subjects with 1 or more Adverse events: Aspartate aminotransferase increased (100 mg QD): 0 | Subjects with 1 or more Adverse events: Bronchitis (100 mg QD): 0 | Subjects with 1 or more Adverse events: COVID-19 (100 mg QD): 5 | Subjects with 1 or more Adverse events: Cough (100 mg QD): 3 | Subjects with 1 or more Adverse events: Diarrhea (100 mg QD): 1 | Subjects with 1 or more Adverse events: Headache (100 mg QD): 5 | Subjects with 1 or more Adverse events: Influenza (100 mg QD): 1 | Subjects with 1 or more Adverse events: Nasopharyngitis (100 mg QD): 11 | Subjects with 1 or more Adverse events: Upper respiratory tract infection (100 mg QD): 2 | Subjects with 1 or more Adverse events: Urinary tract infection (100 mg QD): 0 | Subjects with 1 or more Serious adverse events (100 mg QD): 3 | Subjects with 1 or more Serious adverse events: COVID-19 (100 mg QD): 1 | Subjects with 1 or more Serious adverse events: Cerebrovascular accident (100 mg QD): 0 | Subjects with 1 or more Serious adverse events: Coronary artery disease (100 mg QD): 0 | Subjects with 1 or more Serious adverse events: Diverticulitis (100 mg QD): 1 | Subjects with 1 or more Serious adverse events: Foot deformity (100 mg QD): 0 | Subjects with 1 or more Serious adverse events: Infected cyst (100 mg QD): 0 | Subjects with 1 or more Serious adverse events: Intervertebral disc protrusion (100 mg QD): 1 | Subjects with 1 or more Serious adverse events: Ligament injury (100 mg QD): 0 | Subjects with 1 or more Serious adverse events: Non-cardiac chest pain (100 mg QD): 0 | Subjects with 1 or more Serious adverse events: Suicide attempt (100 mg QD): 1 | Subjects with 1 or more Serious adverse events: Tonsillar hypertrophy (100 mg QD): 0 | Subjects with 1 or more Serious adverse events: Uterine leiomyoma (100 mg QD): 0 | Subjects with 1 or more Serious adverse events: Ventricular dysfunction (100 mg QD): 0 | Subjects with 1 or more treatment-emergent adverse events leading to discontinuation of study agent (100 mg QD): 2 | Subjects with 1 or more Adverse events (Combined): 174 | Subjects with 1 or more Adverse events: Alanine aminotransferase increased (Combined): 9 | Subjects with 1 or more Adverse events: Arthralgia (Combined): 8 | Subjects with 1 or more Adverse events: Aspartate aminotransferase increased (Combined): 7 | Subjects with 1 or more Adverse events: Bronchitis (Combined): 9 | Subjects with 1 or more Adverse events: COVID-19 (Combined): 35 | Subjects with 1 or more Adverse events: Cough (Combined): 8 | Subjects with 1 or more Adverse events: Diarrhea (Combined): 11 | Subjects with 1 or more Adverse events: Headache (Combined): 12 | Subjects with 1 or more Adverse events: Influenza (Combined): 7 | Subjects with 1 or more Adverse events: Nasopharyngitis (Combined): 49 | Subjects with 1 or more Adverse events: Upper respiratory tract infection (Combined): 24 | Subjects with 1 or more Adverse events: Urinary tract infection (Combined): 8 | Subjects with 1 or more Serious adverse events (Combined): 11 | Subjects with 1 or more Serious adverse events: COVID-19 (Combined): 1 | Subjects with 1 or more Serious adverse events: Cerebrovascular accident (Combined): 1 | Subjects with 1 or more Serious adverse events: Coronary artery disease (Combined): 1 | Subjects with 1 or more Serious adverse events: Diverticulitis (Combined): 1 | Subjects with 1 or more Serious adverse events: Foot deformity (Combined): 1 | Subjects with 1 or more Serious adverse events: Infected cyst (Combined): 1 | Subjects with 1 or more Serious adverse events: Intervertebral disc protrusion (Combined): 1 | Subjects with 1 or more Serious adverse events: Ligament injury (Combined): 1 | Subjects with 1 or more Serious adverse events: Non-cardiac chest pain (Combined): 1 | Subjects with 1 or more Serious adverse events: Suicide attempt (Combined): 1 | Subjects with 1 or more Serious adverse events: Tonsillar hypertrophy (Combined): 1 | Subjects with 1 or more Serious adverse events: Uterine leiomyoma (Combined): 1 | Subjects with 1 or more Serious adverse events: Ventricular dysfunction (Combined): 1 | Subjects with 1 or more treatment-emergent adverse events leading to discontinuation of study agent (Combined): 10 | Subjects with 1 or more Adverse events [1]: 23 | Subjects with 1 or more Adverse events: Alanine aminotransferase increased [1]: 2 | Subjects with 1 or more Adverse events: Arthralgia [1]: 1 | Subjects with 1 or more Adverse events: Aspartate aminotransferase increased [1]: 1 | Subjects with 1 or more Adverse events: Bronchitis [1]: 1 | Subjects with 1 or more Adverse events: COVID-19 [1]: 2 | Subjects with 1 or more Adverse events: Cough [1]: 0 | Subjects with 1 or more Adverse events: Diarrhea [1]: 1 | Subjects with 1 or more Adverse events: Headache [1]: 0 | Subjects with 1 or more Adverse events: Influenza [1]: 1 | Subjects with 1 or more Adverse events: Nasopharyngitis [1]: 9 | Subjects with 1 or more Adverse events: Upper respiratory tract infection [1]: 4 | Subjects with 1 or more Adverse events: Urinary tract infection [1]: 2 | Subjects with 1 or more Serious adverse events [1]: 1 | Subjects with 1 or more Serious adverse events: COVID-19 [1]: 0 | Subjects with 1 or more Serious adverse events: Cerebrovascular accident [1]: 1 | Subjects with 1 or more Serious adverse events: Coronary artery disease [1]: 0 | Subjects with 1 or more Serious adverse events: Diverticulitis [1]: 0 | Subjects with 1 or more Serious adverse events: Foot deformity [1]: 0 | Subjects with 1 or more Serious adverse events: Infected cyst [1]: 0 | Subjects with 1 or more Serious adverse events: Intervertebral disc protrusion [1]: 0 | Subjects with 1 or more Serious adverse events: Ligament injury [1]: 0 | Subjects with 1 or more Serious adverse events: Non-cardiac chest pain [1]: 0 | Subjects with 1 or more Serious adverse events: Suicide attempt [1]: 0 | Subjects with 1 or more Serious adverse events: Tonsillar hypertrophy [1]: 0 | Subjects with 1 or more Serious adverse events: Uterine leiomyoma [1]: 0 | Subjects with 1 or more Serious adverse events: Ventricular dysfunction [1]: 0 | Subjects with 1 or more treatment-emergent adverse events leading to discontinuation of study agent [1]: 0 | Subjects with Abdominal distension: 0 | Subjects with Abscess limb: 0 | Subjects with Constipation: 0 | Subjects with Gastrointestinal disorders (system organ class): (16.7%) | Subjects with Headache: (11.6%)
